Laboratory results: patent US8906910B2, “Imidazopyridine derivatives as PI3 kinase” (GlaxoSmithKline LLC, priority 2011, dated 2014)

What was measured:
MDA-MB-468 cells = test: Cell growth inhibition in PTEN-deficient cell line MDA-MB-468 (anchorage independent, Alamar Blue); format: cell-based; settings: Homo sapiens, 144 h, MDA-MB-468, anchorage independent conditions, 6 days incubation, read-out: Prolif EC50 (nM) MDA-MB-468
Protocol: PTEN deficient tumor cell lines (MDA-MB-468) were cultured generally according to instructions supplied by cell culture supplier American Type Culture Collection, Manassas, Va., with 10% fetal bovine serum at 5% CO2 and 37° C. Cells were seeded into either a T-75 or a T-175 flask 3-4 days prior to 96-well assay plating such that the flasks were approximately 70-80% confluent of the time of harvest. Cells were harvested using 0.25% trypsin-EDTA (Invitrogen #25200056). Trypan Blue exclusion staining was used to determine cell number.
Viable cells were plated in clear, flat bottom 96-well plates (BD #353075) under anchorage independent conditions at 2,000-10,000 cells per well depending on the cell line. To generate anchorage independent growth conditions, a 5% agar stock solution in water was made and autoclaved to melt and sterilize. From the 5% agar solution, a 0.6% agar/media+10% fetal bovine serum (FBS) solution was made to generate a bottom agar layer in the plates to prevent cell attachment. Seventy five microliters per well of the 0.6% agar-media solution was added to the plates. After solidification, a cell solution of 266,870 to 1, 334,022 cells (depending on the cell line) in 10 ml of 0.3% agar/media+10% FBS was made and 75 μl of the cell/media/agar suspension was added to the plates. After the cell layer solidified, 50 μl of media+10% FBS was added to the top of the cells. A 0.3% Brij 35 (Sigma B4184) solution in media+10% FBS was added to column 12 as a background subtraction control. The cells were incubated overnight at 5% CO2 and 37° C. The next day one plate of cells was processed at the time of compound addition to quantify the starting number of cells (T=0 or T0).
To generate the compound titration plates, 15 μl of a 2 mM or 20 μl of a 20 mM solution of the compound of example 31 was diluted in clear bottom polypropylene 96-well plate (BD #351190) using a 10 point, 3-fold titration or a 20 point 2-fold titration, respectively. Three hundred microliters of media was added to the compound dilutions. Ten microliters per well of the serial dilutions was added to the cells and the plates incubated for 6 days at 5% CO2 and 37° C. The final concentration of DMSO in all wells was 0.15% and the highest final concentration of the compound of example 31 was 3.7 μM or 30.7 μM.
Following the 6-day incubation, 20 μl of Alamar Blue (Invitrogen #DAL1100) was added to the cells, incubated at 5% CO2 and 37° C. for 6 hours and the plates read on a Spectramax (Gemini EM) at 530 nm (excitation) and 590 nm (emission) with the auto cut-off disabled. For analysis of cell growth inhibition dose response curves, the data was plotted as the percent of the DMSO-treated control samples (DMSO samples set to 100%). The cellular response was determined for compounds and control compounds by fitting the concentration response with a 4 parameter curve fit using XLfit software and determining the concentration that inhibits 50% of the Ymax-Ymin window (EC50). The EC50 is the midpoint of active compound effect window (between Ymax plateau and Ymin plateau of compound) and represents the concentration of the compound of example 31 where 50% of its maximal effect is observed. Values from wells containing 0.3% Brij 35 (under anchorage independent conditions) were subtracted from all samples for background correction. The compounds listed in Table 3 were tested generally according to the assays described herein. […]

[1] = system: phosphorylation of AKT (Ser473) in MDA-MB-468 tumor cells; test: Inhibition of phosphorylation of AKT in PTEN deficient tumor cell line MDA-MB-468 (MSD Ser473-AKT); format: cell-based; settings: Homo sapiens, 0.5 h; MDA-MB-468 breast cancer cells, 30 minutes compound treatment, Ser473-pAKT normalized to total AKT
Protocol: Compounds were evaluated for their ability to inhibit downstream phosphorylation of AKT in MDA-MB-468 tumor cells. Breast cancer cells were plated, incubated for approximately 16-20 hours and then treated with compound for 30 minutes. Final DMSO concentration on all cells was 0.15%. The cells were washed with Tris buffer and lysed in MesoScale Discovery (MSD) lysis buffer containing protease and phosphatase inhibitors (included in MSD kit). MSD Ser473-AKT duplex plates (Cat #MS6000) were used according to the manufacturer's instructions and plates were read on a SECTOR™ Imager 6000 using MSD Workbench software. For analysis of the Ser473-pAKT concentration response curves, the data was normalized using the corresponding total AKT value (sum of pAKT and AKT signal) and plotted as the percent of the DMSO-treated control values. The data was fit in Graphpad Prism version 4 for Windows (Graphpad Software, San Diego, Calif.).

PI3Kβ = molecular target: T1, PI3Kβ (Homo sapiens, UniProt P42338); test: HTRF in vitro profiling assay for PI3K inhibition (beta isoform); format: biochemical; settings: 200 pM enzyme, 100 uM ATP, 10 uM PIP2, 150 mM NaCl, corrected pIC50, single run or average of two or more runs; for IC50: read-out: PI3K b pIC50 (converted)
T1 construct: made in house
Description: The PI3-Kinase profiling assays were developed to measure the compound-dependent inhibition of the alpha, beta, delta, and gamma isoforms of PI3Kin an in vitro catalytic assay. This assay was developed and optimized from a kit produced by Upstate (Millipore catalog #33-017). Briefly, this procedure utilizes a pre-formed HTRF (Homogeneous Time-Resolved Fluorescence energy transfer) complex between four binding partners: 1) biotinylated PIP3, 2) GST tagged pleckstrin homology (PH) domain, 3) Europium labeled anti-GST monoclonal antibody, and 4) Streptavidin-Allophycocyanin (APC). The native PIP3 produced by PI 3-Kinase activity displaces biotin-PIP3 from the PH domain, resulting in the dissociation of the HTRF complex and a decrease in the fluorescence signal. The format of this assay is the same for all 4 isoforms of PI3K; the differences lie in the concentration of enzyme used to achieve the most robust signal. The alpha and delta assays are run at 400 pM enzyme; the beta assay is at 200 pM enzyme and the gamma assay is run at 1 nM enzyme. In addition, the alpha, beta and delta assays are run with 150 mM NaCl while the gamma assay is run in the absence of NaCl. The ATP concentration is 100 uM in the alpha, beta, and delta assays and 15 uM ATP in the gamma assay. All reactions are run at 10 uM PIP2
Compounds were serially diluted (3-fold in 100% DMSO) across a 384-well polypropylene mother plate from column 1 to column 12 and column 13 to column 24, to yield 11 concentrations for each test compound. Columns 6 and 18 contain only DMSO. Once titrations were made, 0.054 was transferred to a 384-well low-volume assay plate (Greiner 784076). This assay plate contained three pharmacological controls (known PI3K inhibitors) and 3 assay controls: (1) Enzyme without inhibitor; (2) Buffer minus enzyme, and (3) Buffer minus enzyme plus native PIP3. DMSO was stamped into all wells of columns 6 and 18. PIP3 was added at 40 μM in 1× Reaction buffer (1 μL of 200 μM PIP3) to alternating rows of column 18 (wells 18 B, D, F, H, J, L, N, P). The no-enzyme control reactions were run in wells 18 A, C, E, G, I, K, M, O (0.14 of 100% DMSO).
The PI3-Kinase profiling assay was optimized using the HTRF kit provided by Upstate (Millipore). The assay kit contained seven reagents: 1) 4× Reaction Buffer; 2) native PIP2 (substrate); 3) Stop A (EDTA); 4) Stop B (Biotin-PIP3); 5) Detection Mix A (Streptavidin-APC); 6) Detection Mix B (Eu-labeled Anti-GST plus GST-tagged PH-domain); 7) Detection Mix C (KF). In addition, the following items were obtained or purchased: PI3Kinase (prepared by GSK BR&AD), dithiothreitol (Sigma, D-5545), Adenosine-5′-triphosphate (ATP, Teknova cat. #A0220), native PIP3 (1,2-dioctanoyl-sn-glycero-3-[phosphoinositil-3,4,5-triphosphate]tetraammonium salt (Avanti polar lipids, 850186P), DMSO (Sigma, 472301).
PI3Kinase Reaction Buffer was prepared by diluting the stock 1:4 with de-ionized water. Freshly prepared DTT was added at a final concentration of 5 mM on the day of use. Enzyme addition and compound pre-incubation were initiated by the addition of 2.5 μL of PI3K (at twice its final concentration) in 1× reaction buffer to all wells using a Multidrop Combi. Plates were incubated at room temperature for 15 minutes. Reactions were initiated by addition of 2.5 μL of 2× substrate solution (PIP2 and ATP in 1× reaction buffer) using a Multidrop Combi. Plates were incubated at room temperature for one hour. Reactions were quenched by the addition of 2.5 μL of stop solution (Stop A and Stop B pre-mixed at a ratio of 5:1, respectively) to all wells using the Multidrop Combi. […]

T1 sequence (P42338 whole entry, canonical isoform): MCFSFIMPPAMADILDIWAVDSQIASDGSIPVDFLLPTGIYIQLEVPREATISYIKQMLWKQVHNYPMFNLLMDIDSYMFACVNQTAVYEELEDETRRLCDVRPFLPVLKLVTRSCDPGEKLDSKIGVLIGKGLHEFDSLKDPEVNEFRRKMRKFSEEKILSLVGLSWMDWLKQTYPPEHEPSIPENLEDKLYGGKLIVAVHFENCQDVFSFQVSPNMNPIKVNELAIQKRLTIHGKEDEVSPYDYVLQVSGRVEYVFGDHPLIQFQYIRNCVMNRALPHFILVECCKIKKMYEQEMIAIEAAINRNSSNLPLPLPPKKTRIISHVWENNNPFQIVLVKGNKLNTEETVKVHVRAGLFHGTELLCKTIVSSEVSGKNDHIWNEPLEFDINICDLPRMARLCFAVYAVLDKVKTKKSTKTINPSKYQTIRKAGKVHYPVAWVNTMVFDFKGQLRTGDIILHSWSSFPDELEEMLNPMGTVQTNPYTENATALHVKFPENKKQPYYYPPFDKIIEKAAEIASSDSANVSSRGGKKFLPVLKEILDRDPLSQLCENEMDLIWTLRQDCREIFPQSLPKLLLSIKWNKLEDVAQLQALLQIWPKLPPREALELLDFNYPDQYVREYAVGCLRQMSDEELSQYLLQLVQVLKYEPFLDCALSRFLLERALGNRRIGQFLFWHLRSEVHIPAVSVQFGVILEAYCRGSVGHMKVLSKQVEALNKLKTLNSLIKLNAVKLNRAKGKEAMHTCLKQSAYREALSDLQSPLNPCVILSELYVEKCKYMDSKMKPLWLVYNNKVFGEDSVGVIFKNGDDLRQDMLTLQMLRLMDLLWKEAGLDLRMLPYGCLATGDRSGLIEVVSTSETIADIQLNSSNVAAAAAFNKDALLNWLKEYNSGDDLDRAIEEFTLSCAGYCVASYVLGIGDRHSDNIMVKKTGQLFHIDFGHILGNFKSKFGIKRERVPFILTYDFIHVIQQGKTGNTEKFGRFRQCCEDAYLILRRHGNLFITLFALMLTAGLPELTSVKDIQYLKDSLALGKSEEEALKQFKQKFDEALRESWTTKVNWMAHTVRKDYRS
T1 sequence (P27986 whole entry partner, canonical isoform): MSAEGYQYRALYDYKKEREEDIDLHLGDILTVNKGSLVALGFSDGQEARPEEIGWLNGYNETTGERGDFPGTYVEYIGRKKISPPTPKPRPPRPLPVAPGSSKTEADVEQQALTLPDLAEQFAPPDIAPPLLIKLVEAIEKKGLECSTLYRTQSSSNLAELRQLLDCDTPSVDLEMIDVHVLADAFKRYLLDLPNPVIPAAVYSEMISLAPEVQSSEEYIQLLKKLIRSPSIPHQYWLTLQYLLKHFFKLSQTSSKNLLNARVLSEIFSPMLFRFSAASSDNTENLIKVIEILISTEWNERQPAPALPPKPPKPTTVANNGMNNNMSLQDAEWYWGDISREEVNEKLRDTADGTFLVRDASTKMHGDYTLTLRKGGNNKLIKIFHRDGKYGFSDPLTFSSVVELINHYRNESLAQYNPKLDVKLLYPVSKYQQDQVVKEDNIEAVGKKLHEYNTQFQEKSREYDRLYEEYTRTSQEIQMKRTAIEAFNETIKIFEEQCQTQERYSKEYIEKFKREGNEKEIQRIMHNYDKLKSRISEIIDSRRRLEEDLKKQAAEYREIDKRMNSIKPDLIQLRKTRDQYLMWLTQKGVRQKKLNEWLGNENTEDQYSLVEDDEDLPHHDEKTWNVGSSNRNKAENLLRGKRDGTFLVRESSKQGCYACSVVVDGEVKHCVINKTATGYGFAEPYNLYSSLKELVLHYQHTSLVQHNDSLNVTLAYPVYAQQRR

SMILES | EC50 (MDA-MB-468 cells) [nM] | IC50 [1] [nM] | PI3K b pIC50 (PI3Kβ) | IC50 (PI3Kβ) [µM]
Cc1c(Cn2c(C)nc3c(C(=O)O)cc(N4CCOCC4)nc32)cccc1C(F)(F)F [Example 3, 2-methyl-3-(2-methyl-3-(trifluoromethyl)benzyl)-5-morpholino-3H-imidazo[4,5-b]pyridine-7-carboxylic acid] | 41 | 436 | 8.3 | 
Cc1c(Cl)cccc1Cn1c(C)nc2c(C(=O)O)cc(N3CCOCC3)nc21 [Example 5, 3-(3-chloro-2-methylbenzyl)-2-methyl-5-morpholino-3H-imidazo[4,5-b]pyridine-7-carboxylic acid] | 18.1 | 15.9 | 8.8 | 
Oc1cc(N2CCOCC2)nc2c1ncn2Cc1cccc2ccccc12 [Example 2, 5-morpholino-3-(naphthalen-1-ylmethyl)-3H-imidazo[4,5-b]pyridin-7-ol] |  | 578 |  | 0.00316
Cc1nc2c(C(=O)O)cc(N3CCOCC3)nc2n1Cc1cccc(Cl)c1Cl [Example 4, 3-(2,3-dichlorobenzyl)-2-methyl-5-morpholino-3H-imidazo[4,5-b]pyridine-7-carboxylic acid] | 153 | 41.4 | 8.3 | 
Cc1c(Cn2cnc3c(O)cc(N4CCOCC4)nc32)cccc1C(F)(F)F [Example 1, 3-(2-methyl-3-(trifluoromethyl)benzyl)-5-morpholino-3H-imidazo[4,5-b]pyridin-7-ol] |  | 477 |  | 0.00158
Cc1nc2c(C(=O)O)cc(N3CCOCC3)nc2n1Cc1cccc2ccccc12 [Example 6, 2-methyl-5-morpholino-3-(naphthalen-1-ylmethyl)-3H-imidazo[4,5-b]pyridine-7-carboxylic acid] | 66.5 | 75.3 |  | 0.00158
Cc1nc2ccc(N3CCOCC3)nc2n1Cc1cccc(Cl)c1Cl [Example 8, 4-(3-(2,3-dichlorobenzyl)-2-methyl-3H-imidazo[4,5-b]pyridin-5-yl)morpholine] | 1500 | 406 |  | 0.0398
Cc1nc2ccc(N3CCOCC3)nc2n1Cc1cccc2ccccc12 [Example 7, 4-(2-methyl-3-(naphthalen-1-ylmethyl)-3H-imidazo[4,5-b]pyridin-5-yl)morpholine] |  | 126 |  | 0.00631
